Test results: patent US3954875A, “Benzophenone herbicides” (Rohm and Haas Company, priority 1973, dated 1976)

Legend:
Monocots = experiment: Preemergence weed control in flats (Example 14, Table II), monocot weeds; format: in vivo; conditions: about 2 weeks after application
Protocol: (§1) Using the procedure described below, the benzophenones of Examples 1 and 2 were evaluated for control of the following weeds:
Barnyardgrass (Echinochloa crusgalli)
Crabgrass (Digitaria spp.)
Foxtail (Setaria italica)
Johnsongrass (Sorghum halepense)
Quackgrass (Agropyron repens)
Yellow millet (Panicum miliaceaum)
Wild oats (Sesbania spp.)
(§2) The following test procedure is employed. Seeds of selected weeds are planted in soil in flats, and the flats are treated with the test compound immediately after the planting. The compound to be evaluated is dissolved in acetone, diluted with water, and sprayed over the flats using a carrier volume equivalent to 50 gallons per acre at the rate of application (pounds per acre, lb/A.) specified in the tables. About 2 weeks after the application of the test compound, the state of growth of the plants is observed and the phytotoxic effect of the compound is evaluated. Table II gives the average percent control achieved by the test compounds in terms of the percent of the plants which are killed by the compounds.

Dicots = experiment: Preemergence weed control in flats (Example 14, Table II), dicot weeds; format: in vivo; conditions: about 2 weeks after application
Protocol: as §1
Coffeeweed (Sesbania spp.)
velvetleaf (Abutilon theophrasti)
as §2

Row | Structure (SMILES) | % Control, Monocots (average percent of the plants killed) (Monocots; 2 lb./A.) [%] | % Control, Monocots (average percent of the plants killed) (Monocots; 4 lb./A.) [%] | % Control, Monocots (average percent of the plants killed) (Monocots; 8 lb./A.) [%] | % Control, Dicots (average percent of the plants killed) (Dicots; 2 lb./A.) [%] | % Control, Dicots (average percent of the plants killed) (Dicots; 4 lb./A.) [%] | % Control, Dicots (average percent of the plants killed) (Dicots; 8 lb./A.) [%]
1 | COc1ccc(C(=O)c2cccc(C(F)(F)F)c2)cc1C [Example 1, 4-methoxy-3-methyl-3'-trifluoromethylbenzophenone] | 91 | 97 | 99 | 65 | 70 | 85
2 | COc1ccc(C(=O)c2cccc(C)c2)cc1C [Example 2, 4-methoxy-3,3'-dimethylbenzophenone] | 88 | 93 | 100 | 60 | 55 | 65
